From patent publication US5091365A, “Cyclic peptides as promoters of absorption on administration onto the mucosa” (Hoechst Aktiengesellschaft, priority 1987, dated 1992)

Legend:
[1] = system: male rats; experiment: LH release in male rats under urethane anesthesia over 6-7 hours; type: in vivo, rat; details: aid 0.01M, 10 ng of buserelin
Method: 2. An example of another method suitable for detecting the enhancement of the effect due to increased absorption is determination of the LH release in male rats (weighing 100 g, under urethane anesthesia). […] It emerged that both bacitracin and colistin and polymyxin B (0.01M) increased the effect of a dose of 10 ng of buserelin, measured by the areas under the curve, by a factor of 3.3-14.

[2] = system: rat; experiment: Increase of absorption of peptide active substances from the mucosa in the rat; type: in vivo
Method: 1. The effect of cyclic peptides on the nasal and rectal absorption of LHRH (gonadorelin) and LHRH agonists (for example buserelin) was investigated in the following way: female rats weighing 60 g are pretreated with horse serum gonadotropin (PMSG) 10 I.U. (day 1, 09:00) for follicle stimulation. On the third day after the pretreatment, the ovulation which spontaneously occurs at about 14:00 is suppressed by injection of phenobarbital (4 mg/animal i.p. around 13:00). […] On the next day of the experiment (day 4) the animals are sacrificed at about 09:00, both uterine tubes are dissected out and, after staining with patent blue, the number of ova is counted under a stereomicroscope (ovulatory effect of the test substances). The increase in the absorption of the test substances from mucosal surfaces is assessed by comparison of the effect on ovulation in the absence or after addition of, for example, bacitracin 0.001-0.05M. […]
2. […] It emerged that both bacitracin and colistin and polymyxin B (0.01M) increased the effect of a dose of 10 ng of buserelin, measured by the areas under the curve, by a factor of 3.3-14.
3. […] GH in serum is determined 15-120 minutes after the treatment (for example nasally or rectally) by a specific radioimmunoassay.

[3] = system: female rats; experiment: Increase in luteinizing hormone (LH) in serum, same design of experiment in female rats; type: in vivo, rat
[4] = system: male rats; experiment: Serum calcium concentration in male rats after intranasal salmon calcitonin; type: in vivo, rat; details: 0.6-1.2 μg of salmon calcitonin intranasal, addition of 0.01M bacitracin, 1-6 h
Method: 5. The effect of cyclic peptides on the absorption of calcitonin and calcitonin analogs (for example salmon calcitonin) can be investigated on male rats weighing 100 or 200 g, for example after intranasal treatment with salmon calcitonin, by determination of the serum calcium concentration over a period of 1-6 h after the treatment. It was found in this that the effect of 0.6-1.2 μg of salmon calcitonin was increased by a factor of 4-6 by addition of, for example, 0.01M bacitracin.

[5] = system: male rats; experiment: Corticosterone release in serum of male rats after nasal ACTH analog, radioimmunoassay; type: in vivo, rat; details: over 3 h after nasal alsactide (ACTH-17) 5 μg in the presence of 0.01M bacitracin
Method: 4. The effect of cyclic peptides on the absorption of ACTH (corticotropin) and ACTH analogs was investigated in male rats (weighing 100 g) after treatment under anesthesia with pentobarbital or ether. The corticosterone release in the serum was determined by a specific radioimmunoassay as a parameter of the effect. It emerged that the corticosterone release over 3 h after nasal treatment, for example, with the ACTH analog alsactide (ACTH-17) in a dose of 5 μg was increased by a factor of 5 in the presence of 0.01M bacitracin.

[6] = system: female rats; experiment: Release of growth hormone (GH) in serum of PMSG-pretreated rats, radioimmunoassay; type: in vivo, rat; details: for finding with other GHRH agonists on addition of bacitracin (GH release): compared with (DAla2) GRF-29 amide: 40 μg without = 20 μg with 0.001M bacitracin
Method: 3. The effect of cyclic peptides of the nasal absorption of GHRH analogs was investigated in the following way: In the same model as described for the ovulatory effect of LHRH, it is possible on the third day after the pretreatment with PMSG to test the release of growth hormone (GH). GH in serum is determined 15-120 minutes after the treatment (for example nasally or rectally) by a specific radioimmunoassay.

[7] = system: female rats; experiment: Ovulation induction in PMSG-pretreated, phenobarbital-blocked female rats (number of ova counted); type: in vivo, rat
Method: 1. The effect of cyclic peptides on the nasal and rectal absorption of LHRH (gonadorelin) and LHRH agonists (for example buserelin) was investigated in the following way: female rats weighing 60 g are pretreated with horse serum gonadotropin (PMSG) 10 I.U. (day 1, 09:00) for follicle stimulation. On the third day after the pretreatment, the ovulation which spontaneously occurs at about 14:00 is suppressed by injection of phenobarbital (4 mg/animal i.p. around 13:00). The treatment with the test substance (for example LHRH or buserelin intranasally in a physiologically tolerated buffer solution of pH 3.0-7.5 in a volume of 2-20 μl, rectal administration of suppositories etc.) is carried out at about 13:30. This treatment induces ovulation dose-dependently. On the next day of the experiment (day 4) the animals are sacrificed at about 09:00, both uterine tubes are dissected out and, after staining with patent blue, the number of ova is counted under a stereomicroscope (ovulatory effect of the test substances). The increase in the absorption of the test substances from mucosal surfaces is assessed by comparison of the effect on ovulation in the absence or after addition of, for example, bacitracin 0.001-0.05M. It is also possible to use as parameter of the effect in the same design of experiment the dose-dependent increase in luteinizing hormone (LH) in the serum one hour after treatment. [Sandow J, von Rechenberg W & Jerzabek G (1976): The effect of LHRH, prostaglandins and synthetic analogues of LHRH on ovarian metabolism. Europ. J. Obstetr. Gynaec. Reprod. Biol. 6, 185-190.]

[8] = system: rectal mucosa; experiment: Rectal mucosa tolerability of hard fat suppositories in rats; type: in vivo, rat; details: hard fat suppositories with 1 mg of bacitracin, rats weighing 100 g, 3 hours after treatment
Method: Furthermore, the compounds according to the invention cause no sensation of pain in humans on nasal administration of 1 to 200 μl of a concentration of 10^-5 to 10^-1 mol/l. […] Local administration of the same concentration by vaginal, rectal or buccal drug forms (i.e., for example, films, tablets, suppositories) likewise causes no irritation to the mucosa.

[9] = system: isolated gastric mucosa of the guinea pig; experiment: Tolerability: patent blue permeation through isolated guinea pig gastric mucosa
Source text: 6. The tolerability of various cyclic peptides as are used as aids to increase absorption can be tested on the isolated gastric mucosa of the guinea pig. [Wirth K, Bickel M & Deutschlander N (1987): Patent blue permeation through the isolated guinea pig gastric mucosa: a quantitative method for the assessment of gastric irritants. Med. Sci. Res. 15, 881.]

polymyxin B
increase of the effect of buserelin on LH release, areas under the curve, factor [1]: 3.3-14

bacitracin
increase of absorption of LHRH agonists, GHRH agonists and similar active substances, factor ([2]; addition of 0.001M bacitracin): 3-4
enhancement of absorption, factor, from LH release by buserelin ([3]; buserelin in the presence of 0.001M bacitracin): more than 3
increase of the effect of buserelin on LH release, areas under the curve, factor [1]: 3.3-14
increase of the effect of salmon calcitonin (serum calcium), factor [4]: 4-6
increase of corticosterone release, factor [5]: 5
dose of (DAla2) GRF-29 amide giving corresponding GH release effect, with bacitracin ([6]; i.n., addition of 0.001M bacitracin, equals effect of 40 μg without): 20 µg
dose of LHRH giving the same ovulatory effect, with aid ([7]; LHRH in a solution of 0.001M bacitracin, equals effect of 8 μg without aid): 2 µg
dose of buserelin giving the same ovulatory effect, with aid ([7]; buserelin in a solution of 0.001M bacitracin, equals effect of 80 ng without aid): 20 ng
dose of buserelin at which ovulation was induced, rectal suppositories, after addition of bacitracin ([7]; rectal treatment of rats with buserelin suppositories plus bacitracin): 50 ng
inflammatory change of the rectal mucosa [8]: no inflammatory change
concentration that can be placed on the mucosa without damage [9]: more than 0.006 M

(DAla2, NLeu27) GRF-29 amide
finding with other GHRH agonists on addition of bacitracin (GH release) [6]: similar

C[C@H](CCC(=O)O)[C@H]1CC[C@H]2[C@@H]3CC[C@@H]4C[C@H](O)CC[C@]4(C)[C@H]3C[C@H](O)[C@]12C [deoxycholic acid]
concentration required to increase absorption in the rat ([2]; rat, in vivo): 0.02 M

(DAla2) GRF-29 amide
dose of (DAla2) GRF-29 amide giving corresponding GH release effect, without bacitracin ([6]; i.n., without bacitracin): 40 µg

CCNC(=O)[C@@H]1CCCN1C(=O)[C@H](CCCNC(=N)N)NC(=O)[C@H](CC(C)C)NC(=O)[C@@H](COC(C)(C)C)NC(=O)[C@H](Cc1ccc(O)cc1)NC(=O)[C@H](CO)NC(=O)[C@H](Cc1c[nH]c2ccccc12)NC(=O)[C@H](Cc1cnc[nH]1)NC(=O)[C@@H]1CCC(=O)N1 [buserelin]
dose of buserelin giving the same ovulatory effect, without aid ([7]; buserelin in physiological saline containing 0.1% gelatin): 80 ng
dose of buserelin at which ovulation occurred, rectal suppositories, without bacitracin ([7]; rectal treatment of rats with buserelin suppositories, no aid): 400 ng

(Leu27, Gly45) GHRH (1-44)
finding with other GHRH agonists on addition of bacitracin (GH release) [6]: similar

colistin
enhancement of LHRH effect on investigation of the LH release ([3]; LHRH in the presence of 0.001M colistin): this effect also emerged
increase of the effect of buserelin on LH release, areas under the curve, factor [1]: 3.3-14

CC(C)C[C@H](NC(=O)CNC(=O)[C@H](Cc1ccc(O)cc1)NC(=O)[C@H](CO)NC(=O)[C@H](Cc1c[nH]c2ccccc12)NC(=O)[C@H](Cc1cnc[nH]1)NC(=O)[C@@H]1CCC(=O)N1)C(=O)N[C@@H](CCCNC(=N)N)C(=O)N1CCC[C@H]1C(=O)NCC(N)=O [LHRH, LHRH (gonadorelin)]
dose of LHRH giving the same ovulatory effect, without aid ([7]; LHRH in physiological saline containing 0.1% gelatin): 8 µg
